Target: T1, Equilibrative nucleoside transporter 1 (Homo sapiens, UniProt Q99808)
T1 sequence (Q99808 whole entry): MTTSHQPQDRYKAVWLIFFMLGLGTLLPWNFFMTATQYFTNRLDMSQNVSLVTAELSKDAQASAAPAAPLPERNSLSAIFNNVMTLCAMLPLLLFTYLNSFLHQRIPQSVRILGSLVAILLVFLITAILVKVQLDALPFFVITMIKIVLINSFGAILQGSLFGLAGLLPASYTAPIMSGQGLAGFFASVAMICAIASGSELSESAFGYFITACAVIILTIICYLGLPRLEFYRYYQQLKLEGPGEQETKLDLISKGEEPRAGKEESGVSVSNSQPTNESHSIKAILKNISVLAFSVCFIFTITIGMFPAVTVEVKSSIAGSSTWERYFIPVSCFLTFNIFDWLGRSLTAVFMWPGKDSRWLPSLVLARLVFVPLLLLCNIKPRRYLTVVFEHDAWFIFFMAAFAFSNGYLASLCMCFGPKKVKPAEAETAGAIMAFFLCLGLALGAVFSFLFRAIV
Assay: Displacement of 5-(SAENTA)-X8-fluorescein from K562 cell nucleoside transporter
Type: cell-based

First: OC[C@H]1O[C@@H](n2cnc3c(SCc4cccc(Br)c4)ncnc32)[C@H](O)[C@@H]1O
Second: OC[C@H]1O[C@@H](n2cnc3c(SCc4cccc(F)c4)ncnc32)[C@H](O)[C@@H]1O
The Ki of the first is 1.8-fold higher: 20.5 nM for the first, 11.2 nM for the second. The second binds more tightly here.

OC[C@H]1O[C@@H](n2cnc3c(SCc4ccc(Br)cc4)ncnc32)[C@H](O)[C@@H]1O and OC[C@H]1O[C@@H](n2cnc3c(SCc4ccc(F)cc4)ncnc32)[C@H](O)[C@@H]1O are within 1.5-fold of each other in Ki: 9.98 nM for the first, 9.02 nM for the second.

Going from OC[C@H]1O[C@@H](n2cnc3c(SCc4ccccc4I)ncnc32)[C@H](O)[C@@H]1O to OC[C@H]1O[C@@H](n2cnc3c(SCc4ccccc4Cl)ncnc32)[C@H](O)[C@@H]1O, the Ki rises from 16.1 nM to 99.5 nM (6.2-fold).

First: OC[C@H]1O[C@@H](n2cnc3c(SCc4ccccc4F)ncnc32)[C@H](O)[C@@H]1O
Second: OC[C@H]1O[C@@H](n2cnc3c(SCc4ccccc4Br)ncnc32)[C@H](O)[C@@H]1O
The Ki of the first is 6.7-fold lower: 19.9 nM for the first, 134 nM for the second.

OC[C@H]1O[C@@H](n2cnc3c(SCc4cccc(I)c4)ncnc32)[C@H](O)[C@@H]1O and OC[C@H]1O[C@@H](n2cnc3c(SCc4cccc(Cl)c4)ncnc32)[C@H](O)[C@@H]1O are within 1.5-fold of each other in Ki: 13.8 nM for the first, 16 nM for the second.

First: OC[C@H]1O[C@@H](n2cnc3c(SCc4ccc(Cl)cc4)ncnc32)[C@H](O)[C@@H]1O
Second: OC[C@H]1O[C@@H](n2cnc3c(SCc4ccc(I)cc4)ncnc32)[C@H](O)[C@@H]1O
The Ki of the first is 3.7-fold higher: 14.2 nM for the first, 3.88 nM for the second. The second binds more tightly here.

— ChEMBL document CHEMBL1147566, “Novel halogenated nitrobenzylthioinosine analogs as es nucleoside transporter inhibitors” (Bioorg Med Chem Lett, 2004)
